≈ marks a conversion by molar mass, not a printed value.
Legend:
[1] = test system: wheat white powder; experiment: Live spray protection of plants, prevention and control effect; type: in vivo
Excerpt: The water-dispersible granules preparations with 50% of crystal form 1 and crystal form 2 were formulated into solutions, respectively, and the plants were protected by live spray. Crystal form 2 has better prevention and control effect.

[2] = Solubility in ethanol by high performance liquid chromatography
Experimental: Excess crystal form 1 and crystal form 2 were weighed and suspended in ethanol, shaken for 12 h, and high performance liquid chromatography was used to test the solubility.

[3] = High temperature stability of crystal form (XRPD test); type: physicochemical; settings: oven at 60±2° C., 5 and 10 days
Experimental: XRD (X-ray powder diffraction) method: instrument model: Rigaku Ultima IV; target: Cu-Kα (40 kV, 40 mA); using a D/tex Ultra detector at room temperature. The scanning range is from 3° to 45 in the 2θ interval, and the scanning speed is 20°/minute. […] After 5 and 10 days, the sample was taken out for XRPD test to investigate the crystalline stability of the sample to temperature.

[4] = High humidity stability of crystal form (XRPD test); type: physicochemical; settings: 90±5% humidity, 5 days and 10 days
Experimental: (§1) XRD (X-ray powder diffraction) method: instrument model: Rigaku Ultima IV; target: Cu-Kα (40 kV, 40 mA); using a D/tex Ultra detector at room temperature. The scanning range is from 3° to 45 in the 2θ interval, and the scanning speed is 20°/minute.

[5] = Light stability of crystal form (XRPD test); type: physicochemical; settings: 4500±500 lux light intensity, 5 days and 10 days
Experimental: as §1

## CC(C)(C)C(O)(CCc1ccc(Cl)cc1)Cn1cncn1 (racemic) [96% tebuconazole TC, (RS)-1-(4-chlorophenyl)-4,4-dimethyl-3-(1H-1,2,4-triazol-1-ylmethyl) pentan-3-ol]
[1]; concentration 0.15625 mg/L
  prevention and control effect: 0%
[1]; concentration 0.625 mg/L
  prevention and control effect: 30%
[1]; concentration 2.5 mg/L
  prevention and control effect: 50%
[1]; concentration 10 mg/L
  prevention and control effect: 100%

## CC(C)(C)C(O)(CCc1ccc(Cl)cc1)Cn1cncn1 (racemic) [crystal form 1, (RS)-1-(4-chlorophenyl)-4,4-dimethyl-3-(1H-1,2,4-triazol-1-ylmethyl) pentan-3-ol]
[2]; organic solvent or mixture, thermodynamic from solid, Solubility, excess solid suspended in ethanol, shaken for 12 h, HPLC
  solubility at 12 h: 92.1 mg/mL (≈ 299 mM)

## CC(C)(C)C(O)(CCc1ccc(Cl)cc1)Cn1cncn1 (racemic) [crystal form 2, (RS)-1-(4-chlorophenyl)-4,4-dimethyl-3-(1H-1,2,4-triazol-1-ylmethyl) pentan-3-ol]
[3]
  crystalline stability of the sample to temperature: stable
[4]
  crystalline stability of the samples to humidity: stable
[5]
  crystal form stability of the sample to light: stable
[2]; ethanol, crystal form 2 versus crystal form 1
  solubility in ethanol relative to crystal form 1: about 1.7 times
[2]; excess solid suspended in ethanol, shaken for 12 h, HPLC
  Solubility: 156.2 mg/mL (≈ 507 mM)

Reference: patent publication US11186552B2, “Tebuconazole polymorph and preparation method therefor” (East China University of Science and Technology, priority 2017, dated 2021)
